This passage reports IC50 and EC50 results from patent US20260355217A1, “HPK1 INHIBITOR, PREPARATION METHOD THEREFOR, AND USE THEREOF” (Beijing Earthwise Technology Co., Ltd., priority 2022, published 2026).

T1 sequence (Q92918 whole entry): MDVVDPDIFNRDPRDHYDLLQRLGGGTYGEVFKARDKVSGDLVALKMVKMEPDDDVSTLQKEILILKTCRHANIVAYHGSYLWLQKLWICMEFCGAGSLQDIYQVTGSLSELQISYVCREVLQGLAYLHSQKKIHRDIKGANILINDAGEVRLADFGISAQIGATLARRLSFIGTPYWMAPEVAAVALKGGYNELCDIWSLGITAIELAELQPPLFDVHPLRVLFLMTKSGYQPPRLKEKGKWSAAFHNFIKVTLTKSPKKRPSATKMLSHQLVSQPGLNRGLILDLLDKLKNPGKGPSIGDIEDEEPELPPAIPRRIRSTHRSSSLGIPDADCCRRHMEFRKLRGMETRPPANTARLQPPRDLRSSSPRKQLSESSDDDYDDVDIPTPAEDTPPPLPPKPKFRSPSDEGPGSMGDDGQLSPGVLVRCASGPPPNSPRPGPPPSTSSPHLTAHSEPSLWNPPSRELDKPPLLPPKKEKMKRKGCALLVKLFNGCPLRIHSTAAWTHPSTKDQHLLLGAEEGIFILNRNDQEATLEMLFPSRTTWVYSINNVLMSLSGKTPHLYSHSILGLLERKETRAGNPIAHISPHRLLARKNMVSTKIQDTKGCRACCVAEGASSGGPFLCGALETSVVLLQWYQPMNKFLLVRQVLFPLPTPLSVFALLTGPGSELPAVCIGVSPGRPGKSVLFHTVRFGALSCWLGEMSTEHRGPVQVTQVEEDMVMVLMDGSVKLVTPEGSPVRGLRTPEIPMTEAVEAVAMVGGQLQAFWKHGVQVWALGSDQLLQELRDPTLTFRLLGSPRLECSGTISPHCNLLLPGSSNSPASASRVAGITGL

One experiment concerns the target T1, pSLP76 (Phospho-SLP-76 (Ser376)), Jurkat E6-1 cells (Homo sapiens, UniProt Q92918).
T1 construct: read-out phospho-SLP-76 (Ser376) HTRF
Nature of the experiment: Phospho-SLP-76 (Ser376) HTRF Assay in Jurkat E6-1 cells. Format: cell-based. Particulars: compound 4 hours, then anti-CD3 20 minutes. How it is done: Assay Example 3 Phospho-SLP-76 (Ser376) HTRF Assay
A compound was dissolved in DMSO to 10 mM, and then diluted three-fold with DMSO to 10 dosages in a 96-well plate. Then, 3 μL of the diluted compound sample was transferred to a 96-well plate with 97 μL of cell culture medium, and the plate was shaken for 5 minutes. According to the experimental design diagram, 7.5 μL of the diluted compound sample was transferred to a cell plate. Final concentrations of the compound in this assay were 10000.00, 3333.33, 1111.11, 370.37, 123.46, 41.15, 13.72, 4.57, 1.52 and 0.51 nM.
In this assay, the density of Jurkat E6-1 cells was maintained between 3*10^5 to 3*10^6 cells/mL. The cell culture was replaced with fresh culture medium every 2 to 3 days (depending on the cell density). 30 μL of Jurkat E6-1 (300,000 cells) was added to a 96-well plate and incubated in a 37 °C incubator for 1 hour. Then, according to the experimental design diagram, compounds (6×, 7.5 μL) were added to treat the cells for 4 hours, respectively. After 4 hours, purified anti-human anti-CD3 antibodies (6×, 7.5 μL) were added to treat the cells for 20 minutes. After 20 minutes, 15 μL of cell lysis buffer (4×) was added, and the cells were lysed at 25 °C with shaking (250 rpm) for 1 hour. Then, according to the experimental design diagram, 16 μL of cell lysate was transferred to a 384-well plate using a pipette. After the transfer, 4 μL of antibody detection mixture was added. After being placed at room temperature overnight, the plate was read by EnVision multi-function microplate reader to read the FRET signal (the ratio of HTRF 665/615 was calculated from the readings at 665 nm and 615 nm).
The ratio of the signal at 665 nm to the signal at 615 nm was converted to the percentage of inhibition. Inhibition %=(maximum value−sample value)/(maximum value−minimum value)×100. The minimum value refers to the signal value of a well without anti-CD3 antibody stimulation during the treatment of cells, and the maximum value refers to the signal value of a well with anti-CD3 antibody stimulation but without the compound during the treatment of cells. IC50 values were calculated by XLFit (version 5.3.1.3) in excel. Equation: Y=Bottom+(Top−Bottom)/(1+(IC50/X)^HillSlope).
On the technique in general: TR-FRET usually uses a lanthanide donor and a delayed reading to cut background.
Consider `CC1(C)c2cc(N3CCOCC3)ccc2Nc2c1cc(-c1cnc3c(Cl)cccn13)c1cc[nH]c(=O)c21` [Example 1], for which the IC50 (as a rule, the concentration needed to halve the response being measured) came to 121 nM.

With `COc1cccn2c(-c3cc4c(c5c(=O)[nH]ccc35)Nc3ccc(N5CCOC(C(C)(C)O)C5)cc3C4(C)C)cnc12` (centres unmarked) [Example 2], half-maximal inhibition (IC50) was put at 64 nM.

`COc1cccn2c(-c3cc4c(c5c(=O)[nH]ccc35)Nc3ccc(N5CCOCC5)cc3C4(C)C)cnc12` [Example 3] had an IC50 of 57.5 nM.

With `CC1(C)c2cc(N3CCOCC3)ccc2Nc2c1cc(-c1cnn3cccnc13)c1cc[nH]c(=O)c21` [Example 4], the half-maximal inhibitory concentration (IC50) was found to be 38.1 nM.

On to `Cc1ccn2c(-c3cc4c(c5c(=O)[nH]ccc35)Nc3ccc(N5CCOC(C(C)(C)O)C5)cc3C4(C)C)cnc2c1F` (centres unmarked) [Example 6], for which half-maximal inhibition (IC50) required 164 nM.

The molecule `Cc1ccc2c(-c3cc4c(c5c(=O)[nH]ccc35)Nc3ccc(N5CCOC(C(C)(C)O)C5)cc3C4(C)C)cnn2c1` (centres unmarked) [Example 7] came in with an IC50 of 487 nM.

`COc1cccc2c(-c3cc4c(c5c(=O)[nH]ccc35)Nc3ccc(N5CCOCC5)cc3C4(C)C)cnn12` [Example 8] had an IC50 of 103 nM.

Molecule `Cc1ccn2c(-c3cc4c(c5c3CNC5=O)Nc3ccc(N5CCOC(C(C)(C)O)C5)cc3C4(C)C)cnc2c1F` (centres unmarked) [Example 9] had an IC50 of 57.8 nM.

`COc1cccn2c(-c3cc4c(c5c3CNC5=O)Nc3ccc(N5CCOCC5)cc3C4(C)C)cnc12` [Example 10] yielded an IC50 of 42.7 nM.

In turn, `Cc1ccn2c(-c3cc4c(c5c3CNC5=O)Nc3ccc(N5CCOCC5)cc3C4(C)C)cnc2c1F` [Example 11] displayed an IC50 of 73.3 nM.

As for `CC1(C)c2cc(N3CCOCC3)ccc2Nc2c1cc(-c1cnc3cccnn13)c1c2C(=O)NC1` [Example 12], the IC50 is 25.9 nM.

`COc1cccn2c(-c3cc4c(c5c3CNC5=O)Nc3cnc(N5CCOCC5)cc3C4(C)C)cnc12` [Example 14] displayed an IC50 of 197 nM.

`CC1(C)c2cc(N3CCOCC3)ccc2Nc2c1cc(-c1cnn3cccnc13)c1c2C(=O)NC1` [Example 16] came in with an IC50 of 31.6 nM.

In turn, `CC1(C)c2cc(N3CCOCC3)ccc2Nc2c1cc(-c1cnn3c(C#N)cccc13)c1c2C(=O)NC1` [Example 17] yielded an IC50 of 56.9 nM.

Molecule `COc1cccc2c(-c3cc4c(c5c3CNC5=O)Nc3ccc(N5CCOCC5)cc3C4(C)C)cnn12` [Example 18] gave an IC50 of 66 nM.

Turning to `COc1cccn2c(-c3cc4c(c5c3CNC5=O)Nc3ccc(N5CCOCC5)nc3C4(C)C)cnc12` [Example 20], half-maximal inhibition (IC50) was put at 83.6 nM.

`COc1cccc2c(-c3cc4c(c5c3CNC5=O)Nc3ncc(N5CCOCC5)cc3C4(C)C)cnn12` [Example 21] registered an IC50 of 37 nM.

On to `COc1ccnn2c(-c3cc4c(c5c3CNC5=O)Nc3ccc(N5CCOCC5)cc3C4(C)C)cnc12` [Example 31], for which the IC50 was found to be 58.8 nM.

With `Cn1ccn2c(-c3cc4c(c5c3CNC5=O)Nc3ccc(N5CCOCC5)cc3C4(C)C)cnc2c1=O` [Example 41], the IC50 was determined as 13.5 nM.

Another experiment has as its system human Pan T cells (IL-2 release). Nature of the experiment: Human Pan T Cell IL-2 ELISA. To be noted: Anti-CD3/Anti-CD28, 48 hours, IL-2 ELISA. Format: cell-based. How it is done:
Assay Example 4 Human Pan T Cell IL-2 ELISA
A compound was dissolved in DMSO to 10 mM, and then diluted three-fold with DMSO to 9 dosages in a 96-well plate. Then, 10 μL of the diluted compound sample was transferred to a 96-well plate with 90 μL of cell culture medium, and the plate was shaken for 5 minutes. Then, 5 μL of the diluted compound sample was transferred to a 96-well plate with 120 μL of cell culture medium, and the plate was shaken for 5 minutes. According to the experimental design diagram, 50 μL of the diluted compound sample was transferred to a cell plate. Final concentrations of the compound in this assay were 10000.00, 5000, 2500, 1250, 625, 312.5, 156.25, 78.125 and 39.063 nM.
The assay was conducted in a 96-well plate. On the first day of the assay, Anti-CD3 was added to the 96-well plate and incubated in a 4 °C refrigerator overnight. On the second day of the assay, human Pan T cells were recovered, centrifuged and counted. The cell density was adjusted to 1*10^6 cells/ml. Then, 100 μL of cells were added to the 96-well plate washed with PBS and added with Anti-CD3; according to the experimental design diagram, 50 μL of diluted Anti-CD28 and 50 μL of the diluted compound were added to each well, centrifuged, and the cell plate was placed and incubated in an incubator for 48 hours; after 48 hours, the plate was centrifuged and the supernatant was collected for IL-2 ELISA.
The signal value of light absorption was converted into a multiple. Multiple=sample value/the average value of control wells. The average value of control wells refers to the value measured in wells with DMSO added. EC50 values were calculated by XLFit (version 5.3.1.3) in Excel. Equation: Y=Bottom+(Top−Bottom)/(1+(EC50/X)^HillSlope).
(In an ELISA, binding on a coated surface is turned into a signal by an enzyme label.)
Regarding `COC1CCCn2c(-c3cc4c(c5c3CNC5=O)Nc3ccc(N5CCOCC5)nc3C4(C)C)cnc21` (single isomer, unassigned) [Example 25], a half-maximal effect (EC50) was put at 33.4 nM.

Consider `Cc1ccn2c(-c3cc4c(c5c3CNC5=O)Nc3ccc(N5CCOC(C(C)(C)O)C5)cc3C4(C)C)cnc2c1` (single isomer, unassigned) [Example 106], for which a half-maximal response (EC50) required 18.3 nM.

As for `COC1CCCn2c(-c3cc4c(c5c3CNC5=O)Nc3ccc(N5CCOC(C(C)(C)O)C5)cc3C4(C)C)cnc21` (single isomer, unassigned) [Example 132], the EC50 – broadly, the midpoint of the concentration-response curve – stood at 10.1 nM.

The experiment is the same for the next values; noted with them: Anti-CD3/Anti-CD28 stimulation, 48 hours, IL-2 ELISA of supernatant.
`CC[C@@]1(C)c2cc(N3CCOCC3)ccc2Nc2c1cc(-c1cnc3n1CCC[C@@H]3OC)c1c2C(=O)NC1` (single isomer, unassigned) [Example 167] displayed an EC50 of 38 nM.

Turning to `CC[C@@]1(C)c2cc(N3CCOCC3)ccc2Nc2c1cc(-c1cnc3n1CCC[C@@H]3OC)c1c2C(=O)NC1` (single isomer, unassigned) [Example 168], the EC50 came out at 17 nM.

Molecule `COC1CCCn2c(-c3cc4c(c5c3CNC5=O)Nc3ccc(N5CCOCC5C)cc3C4(C)C)cnc21` (single isomer, unassigned) [Example 180] showed a 50% effective concentration (EC50) of 27 nM.

As to `COC1CCCn2c(-c3cc4c(c5c3CNC5=O)Nc3ccc(N5CCOCC5C)cc3C4(C)C)cnc21` (single isomer, unassigned) [Example 181], the EC50 is 26 nM.

Still in this experiment, the particulars now being: Homo sapiens, T-cell, 48 h, Anti-CD3/Anti-CD28, IL-2 ELISA.
For the molecule `Cc1ccn2c(-c3cc4c(c5c3CNC5=O)Nc3ccc(N5CCO[C@H](C(C)(C)O)C5)cc3C4(C)C)cnc2c1F` (single isomer, unassigned) [Example 89], a half-maximal effect (EC50) was put at 6.64 nM.

Consider `CO[C@@H]1CCCn2c(-c3cc4c(c5c3CNC5=O)Nc3ccc(N5CCOCC5)cc3C4(C)C)cnc21` (single isomer, unassigned) [Example 91], for which the EC50 amounted to 5.96 nM.

Take `CC1(C)c2cc(N3CCO[C@H](C(C)(C)O)C3)ccc2Nc2c1cc(-c1cnc3cc(F)ccn13)c1c2C(=O)NC1` (single isomer, unassigned) [Example 94]: the EC50 came to 4.84 nM.

For the molecule `Cc1ccc2c(-c3cc4c(c5c3CNC5=O)Nc3ccc(N5CCO[C@H](C(C)(C)O)C5)cc3C4(C)C)cnn2c1` (single isomer, unassigned) [Example 96], the EC50 turned out to be 5.91 nM.

Consider `CCO[C@@H]1CCCn2c(-c3cc4c(c5c3CNC5=O)Nc3ccc(N5CCOCC5)cc3C4(C)C)cnc21` (single isomer, unassigned) [Example 137], for which the 50% effective concentration (EC50) was determined as 26.8 nM.

Molecule `Cc1ccn2c(-c3cc4c(c5c3CNC5=O)Nc3ccc(N5CCO[C@H](C(C)(C)O)C5)cc3C4(C)C)cnc2c1` (stereo in doubt) [Example 107] registered an EC50 of 11.9 nM.

In turn, `CC1(C)c2cc(N3CCOCC3)ccc2Nc2c1cc(-c1cnc3c(Cl)cccn13)c1cc[nH]c(=O)c21` [Example 1] yielded a 50% effective concentration (EC50) of 3.67 nM.

As to `COc1cccn2c(-c3cc4c(c5c3CNC5=O)Nc3ccc(N5CCOCC5)cc3C4(C)C)cnc12` [Example 10], the EC50 stood at 4.88 nM.

For `Cc1ccnn2c(-c3cc4c(c5c3CNC5=O)Nc3ccc(N5CCOC(C(C)(C)O)C5)cc3C4(C)C)cnc12` (centres unmarked) [Example 33], it took 4.95 nM to reach a half-maximal effect (EC50).

As for `COc1ccnc2c(-c3cc4c(c5c3CNC5=O)Nc3ccc(N5CCOCC5)cc3C4(C)C)cnn12` [Example 66], the concentration giving a half-maximal response (EC50) stood at 7.83 nM.

Still in this experiment, the particulars now being: Homo sapiens, T-cell, 48 h, Anti-CD3/Anti-CD28 stimulation, IL-2 ELISA of supernatant.
`CO[C@H]1CCn2c(-c3cc4c(c5c3CNC5=O)Nc3ccc(N5CCO[C@@H](C(C)(C)O)C5)cc3C4(C)C)cnc2C1` (single isomer, unassigned) [Example 166] gave an EC50 of 15 nM.

Molecule `CO[C@@H]1CCn2c(-c3cc4c(c5c3CNC5=O)Nc3ccc(N5CCO[C@@H](C(C)(C)O)C5)cc3C4(C)C)cnc2C1` (single isomer, unassigned) [Example 176] gave a concentration giving a half-maximal response (EC50) of 31 nM.

On to `CC1(C)c2cc(N3CCOCC3)ccc2Nc2c1cc(-c1cnc3n1CCC[C@@H]3OC1COC1)c1c2C(=O)NC1` (single isomer, unassigned) [Example 221], for which a half-maximal response (EC50) required 98 nM.

In the case of `CO[C@H]1CCCn2c(-c3cc4c(c5c3CNC5=O)Nc3ccc(N5CC6CCC5CO6)cc3C4(C)C)cnc21` (stereo in doubt) [Example 204], the midpoint of the response, the EC50, lay at 15 nM.

Molecule `CO[C@H]1CCCn2c(-c3cc4c(c5c3CNC5=O)Nc3ccc(N5CC6CCC(C5)O6)cc3C4(C)C)cnc21` [Example 196] registered a 50% effective concentration (EC50) of 27 nM.
